Results: patent publication US9187518B2, “Antiangiogenic brassinosteroid compounds” (CONSEJO NACIONAL DE INVESTIGACIONES CIENTIFICAS Y TECNICAS …, priority 2011, dated 2015)

Assays:
[1] = tested on: TNF-α; assay: TNF-α secretion in epithelial cells (ELISA); assay type: cell-based, human
[2] = tested on: HSV-1; assay: Anti-HSV-1 activity (multiplication and viral spreading) in human conjunctival and corneal cells; assay type: cell-based, Herpes simplex virus type 1
[3] = tested on: HSV-1; assay: Murine model of HSV-1 corneal infection (herpetic stromal keratitis, HSK); assay type: in vivo, mice
[4] = tested on: LMM3 cells; assay: In vivo neovascular response induced by LMM3 cells in BALB/c mice; conditions: intradermal, 5 days
Procedure: For the in vivo assay, 2×10^6 cells/mL were grown in 1 mL of complete medium in 6 wells plates. Compound 1 was incubated with LMM3 cells during 1 h and 6 hs. Also, a group of non-treated tumoral cells were grown and incubated. Then, all the cells from each group were washed with PBS, trypsinized and re-suspended in 0.9 ml of F12 medium without FBS.
Female BALB/c mice were randomized as follows:
• Sham N=4 • LMM3 N=4 • LMM3+Compound 1-1 hour treatment N=4 • LMM3+Compound 1-6 hours treatment N=4
Then, inoculation of 2×10^5 cells/0.1 mL was done intradermically in the mouse flanks. After 5 days the animals were sacrificed and photographs of the inoculation site were taken.
The vessels density was quantified in each animal and the results were analized by ANOVA followed by the Tukey test. Results were expressed as the median of vessels density (vessels/mm^2+/−ES).

Compound: CC[C@@H](C(C)C)[C@H](O)[C@@H](O)[C@@H](C)[C@H]1CC[C@H]2[C@@H]3CCC4=CC(=O)CC[C@]4(C)[C@H]3CC[C@]12C [Compound 1, (22S,23S)-22,23-dihydroxystigmast-4-en-3-one]
- TNF-α production ([1]; HSV-1 infected IOBA-NHC cells, 40 μM, 24 h): did not affect TNF-α production
- TNF-α release ([1]; uninfected treated cells, compound alone): did not induce TNF-α release by itself
- HSV-1 multiplication and viral spreading ([2]; human conjunctival cells): prevents
- selectivity indices (SI) ([2]; human conjunctival cells): 13.2
- HSV-1 multiplication and viral spreading ([2]; human corneal cells): prevents
- selectivity indices (SI) ([2]; human corneal cells): 9.3
- antiviral activity in vivo ([3]; HSV-1 infected mice): no antiviral activity in vivo
- signs of keratitis ([3]; administered during the first 3 days after HSV-1 infection): significantly restrained
- incidence and severity of HSK ([3]; murine model of HSV-1 corneal infection, in presence of replicative virus and after immune response triggered): significantly decreases
- incidence and severity of neovascularization in infected corneas ([3]; treated from day 1 p.i. onwards, and at onset of disease, 6 days p.i. (data not shown)): decreased
- angiogenic response induced by LMM3 cells (vessel density) ([4]; LMM3 cells pre-incubated with 0.025 μg/μl during 1 h): significantly reduced
- angiogenic response induced by LMM3 cells (vessel density) ([4]; LMM3 cells pre-incubated with 0.025 μg/μl during 6 h): significantly reduced
